Data taken from patent US20100063126A1, “Carbazole-Derived Pharmaceutical Compositions” (JadoLabs GmbH, priority 2004, published 2010).

How the values were obtained:
influenza virus = test: Virus budding assay (influenza assay); assay type: cell-based
PR8 virus = test: microbe, parasite or virus in culture; assay type: cell-based; conditions: unidentified influenza virus, PR8, MDCK; for inhibition at 3.125 µM: read-out: inhibition of virus replication / infection
[1] = Disrafter-Liposome Raftophile Assay (D-LRA); conditions: 100 μM
RBL-2H3 cells = test: Degranulation assay (β-hexosaminidase release); assay type: cell-based, Rat
HIV-1 strain NL4-3 = test: microbe, parasite or virus in culture; assay type: cell-based; conditions: Human immunodeficiency virus 1, NL43, HeLa TZM cells, compared to solvent, read-out: inhibition of HIV infection
Wild type SV40 viruses = assay type: cell-based, Simian Virus 40; conditions: 15CM, HeLa cells, compared to solvent control
[2] = tested on: vesicular stomatitis virus (VSV); assay type: cell-based; conditions: HeLa cells
[3] = Rattus norvegicus, RBL-2H3, read-out: inhibition of release of β-hexosaminidase

CCCCCCCc1c(C)c(OC)cc2c1[nH]c1ccccc12 [Compound 24d]
inhibition in influenza virus budding assay (influenza virus): inhibitory
inhibition at 100 µM (PR8 virus; read-out: inhibition of virus infection): 50.9%
disrafting activity (% disrafting) ([1]; perylene as marker): -98.5%

CCCCCCCc1c(C)c(O)cc2c1[nH]c1ccccc12 [Compound 23d]
inhibition at 100 µM (RBL-2H3 cells; [3]): 15%
inhibition at 10 µM (HIV-1 strain NL4-3): 20%
disrafting activity (% disrafting) ([1]; GS-96 as marker): -97.3%

CCCCCCCC1=C(C)C(=O)C(=O)c2c1[nH]c1ccccc21 [Compound 21b]
inhibition in influenza virus budding assay (influenza virus): inhibitory
inhibition at 25 µM (PR8 virus; read-out: inhibition of virus replication): 18.3%

CC1=C(Cc2ccc3[nH]c4c(c3c2)C(=O)C(=O)C(C)=C4CC(C)O)CCC(C)(C)C1 (centres unmarked) [Compound 22a]
inhibition in influenza virus budding assay (influenza virus): inhibitory
inhibition at 3.125 µM (PR8 virus): 24.2%
inhibition of SV40 infection (Wild type SV40 viruses): 19%
inhibitory effect on viral infection in VSV counterscreen [2]: no inhibitory effect on viral infection at all
inhibition at 10 µM (HIV-1 strain NL4-3): 15%

CCCCCCCCCCCCCCCCCCOc1cc2[nH]c3cc(OC)ccc3c2cc1C [Compound 25d]
inhibition in influenza virus budding assay (influenza virus): inhibitory
inhibition at 3.125 µM (PR8 virus): 18.4%

CCCCCCCc1c(C)c(OC)c(OC)c2c1[nH]c1ccccc12 [Compound 22d]
inhibition at 10 µM (HIV-1 strain NL4-3): 21%

Cc1c(C)c2c(c(C)c1O)CC[C@@](C)(CCC[C@H](C)CCC[C@H](C)CCCC(C)C)O2 [Alpha-(+)-tocopherol]
activity in mast cell degranulation assay (RBL-2H3 cells): moderately active

CC(C)=CCc1ccc2[nH]c3c(c2c1)C(=O)C(=O)C(C)=C3C[C@@H](C)O [Compound 21a]
inhibition at 100 µM (RBL-2H3 cells; [3]): 46%
disrafting activity (% disrafting) ([1]; perylene as marker): 47.2%

CCCCCCCC1(O)C(C)=C(OC)C(=O)c2c1[nH]c1ccccc21 (centres unmarked) [Compound 22c]
inhibition in influenza virus budding assay (influenza virus): inhibitory
inhibition at 3.125 µM (PR8 virus): 60.2%
inhibition at 50 µM (RBL-2H3 cells; [3]): 12%
inhibition at 10 µM (HIV-1 strain NL4-3): 44%
